Assay results as given in patent publication US10413541B2, “Oxabicycloheptanes and oxabicycloheptenes for the treatment of depressive and stress disorders” (LIXTE BIOTECHNOLOGY, INC., priority 2015, dated 2019).

Assays:
LHb neurons = assay: Current-clamp excitability (evoked action potentials, input-output curve) of LHb neurons in slices; assay type: cell-based, mice; conditions: LB100 0.1 μM in the bath
Description: Animals were anesthetized with Ketamine/Xylazine (50 mg/10 mg Kg-1 i.p.; Sigma-Aldrich, France). The preparation of LHb-containing brain slices was done in bubbled ice-cold 95% O2/5% CO2-equilibrated solution containing (in mM): cholineCl 110; glucose 25; NaHCO3 25; MgCl2 7; ascorbic acid 11.6; Na+-pyruvate 3.1; KCl 2.5; NaH2PO4 1.25; CaCl2 0.5. Sagittal slices (250 μm) were stored at room temperature in 95% O2/5% CO2-equilibrated artificial cerebrospinal fluid (ACSF) containing (in mM): NaCl 124; NaHCO3 26.2; glucose 11; KCl 2.5; CaCl2 2.5; MgCl2 1.3; NaH2PO4 1. Recordings (flow rate of 2.5 ml/min) were made under an Olympus-BX51 microscope (Olympus, France) at 32° C. Currents were amplified, filtered at 5 kHz and digitized at 20 kHz. Access resistance was monitored by a step of −4 mV (0.1 Hz). Experiments were discarded if the access resistance increased more than 20%.
The internal solution to measure GABAB-GIRK currents and neuronal excitability contained 140 mM potassium gluconate, 4 mM NaCl, 2 mM MgCl2, 1.1 mM EGTA, 5 mM HEPES, 2 mM Na2ATP, 5 mM sodium creatine phosphate, and 0.6 mM Na3GTP (pH 7.3), with KOH. When we measured the synaptic inhibitory or excitatory release the internal solution contained (in mM): CsCl 130; NaCl 4; MgCl2 2; EGTA 1.1; HEPES 5; Na2ATP 2; Na+-creatine-phosphate 5; Na3GTP 0.6, and spermine 0.1. The liquid junction potential was −3 mV. For cell-attached recordings the internal solution consisted in ACSF.
For the Okadaic acid (OA) and the CaMKII inhibitor KN93 experiments, respectively 100 nM of OA or 10 μM of KN93 were added in the internal solution. For the PP2A inhibitor LB100 experiments, LB100 (0.1 μM) was applied in the bath. Miniature excitatory postsynaptic currents (mEPSCs) were recorded in voltage-clamp mode at −60 mV in presence of bicuculine (10 μM) and TTX (1 μM). Miniature inhibitory postsynaptic currents (mIPSCs) were recorded (−60 mV) in presence of NBQX (20 μM) and TTX (1 μM). EPSCs and IPSCs were evoked through an ACSF filled monopolar glass electrode placed 200 μm from the recording site in the stria medullaris. AMPA:NMDA ratios of evoked-EPSC were obtained by AMPA-EPSC −60 mV/NMDA-EPSCs at +40 mV. Rectification Index (RI) was computed by […]-60/AMPA-EPSC+40. For the experiments in which high-frequency stimulation trains were used to determine presynaptic release probability, QX314 (5 mM) was included in the internal solution to prevent the generation of sodium spikes. Current-clamp experiments, were performed by a series of current steps (negative to positive) injected to induce action potentials (5-10 pA injection current per step, 800 ms).

C57Bl/6J mice = assay: Forced swim test after FsE; assay type: in vivo; conditions: for FsE-driven impairment in the forced swim test (depressive-like phenotype): LB100 ip 6-8 h after FsE, 7 days after FsE
Description: The inescapable shock procedure was previously described in Stamatakis and Stuber 2012. Briefly, we placed mice into standard mouse behavioral chambers (Imetronics) equipped with a metal grid floor. We let them to habituate at the new environment for 5 m. In a 20 m session animals received either 19 or 0 unpredictable foot shocks (1 mA, 500 ms) with an interstimulus interval of 30, 60 or 90 s. We anesthetized mice for patch-clamp electrophysiology 1 h, 24 h, 7 d, 14 d or 30 d after the session ended.
For LB treatment experiments, mice were injected with LB (1.5 mg/Kg i.p.) or saline 6-8 hours after the FsE. The effects of the treatment on the LHb excitability and GABAB-GIRKs currents as well as the behavioural assay were assessed at day 1 or 7. For both electrophysiology and behaviour once treated the animal were housed in groups of 4-6 and let undisturbed until the day of the test.
Forced swim test was conducted under normal light condition as previously described (Meye, Valentinova, Lecca et al 2015). Mice were placed in a cylinder of water (temperature 23-25° C.; 14 cm in diameter, 27 cm in height for mice) for six min. The depth of water was set to prevent animals from touching the bottom with their hind limbs. Animal behavior was videotracked from the top (Viewpoint, France). The latency to the first immobility event and the immobility time of each animal spent during the test was counted online by two independent observer blind of the animal treatments. Immobility was defined as floating or remaining motionless, which means absence of all movement except motions required to maintain the head above the water.

[1] = LB-100 ip 6-8 h after FsE, FST 7 days after FsE

CN1CCN(C(=O)C2C(C(=O)O)[C@H]3CC[C@@H]2O3)CC1 (stereo partly drawn) [LB100]
FsE-induced hyperexcitability of LHb neurons (input-output curve, CTRL vs FsE) (LHb neurons): completely abolished
FsE-induced hyperexcitability of LHb neurons (input-output curve, CTRL vs FsE) (LHb neurons; listed as LB-100): comparable to control conditions
FsE-driven impairment in the forced swim test (depressive-like phenotype) (C57Bl/6J mice): sufficient to rescue the impairment
FsE-driven impairment in the forced swim test (depressive-like phenotype) (C57Bl/6J mice; listed as LB-100): behavioral normalization
Latency to the first immobility, control vs FsE group (C57Bl/6J mice; [1]): comparable
Total immobility, control vs FsE group (C57Bl/6J mice; [1]): comparable
